≈ marks a conversion by molar mass, not a printed value.
Tests used:
Streptococcus pneumoniae [1] = assay: Antimicrobial activity against penicillin-resistant Streptococcus pneumoniae 3413 by CLSI method; format: functional
Streptococcus pneumoniae [2] = assay: Antimicrobial activity against Streptococcus pneumoniae 1394 by CLSI method; format: functional
Streptococcus pneumoniae [3] = assay: Antimicrobial activity against penicillin-intermediate Streptococcus pneumoniae 3676 by CLSI method; format: functional
Streptococcus pneumoniae [4] = assay: Antimicrobial activity against penicillin-sensitive Streptococcus pneumoniae 3009 by CLSI method; format: functional
Streptococcus pneumoniae [5] = assay: Antimicrobial activity against penicillin-sensitive Streptococcus pneumoniae 1076 by CLSI method; format: functional
[6] = biological target: T1, Penicillin-binding protein 1A (Streptococcus pneumoniae serotype 4 (strain ATCC BAA-334 / TIGR4), UniProt Q04707); assay: Displacement of Biocillin FL from Streptococcus pneumoniae 24 PBP1A
T1 sequence (Q04707 whole entry): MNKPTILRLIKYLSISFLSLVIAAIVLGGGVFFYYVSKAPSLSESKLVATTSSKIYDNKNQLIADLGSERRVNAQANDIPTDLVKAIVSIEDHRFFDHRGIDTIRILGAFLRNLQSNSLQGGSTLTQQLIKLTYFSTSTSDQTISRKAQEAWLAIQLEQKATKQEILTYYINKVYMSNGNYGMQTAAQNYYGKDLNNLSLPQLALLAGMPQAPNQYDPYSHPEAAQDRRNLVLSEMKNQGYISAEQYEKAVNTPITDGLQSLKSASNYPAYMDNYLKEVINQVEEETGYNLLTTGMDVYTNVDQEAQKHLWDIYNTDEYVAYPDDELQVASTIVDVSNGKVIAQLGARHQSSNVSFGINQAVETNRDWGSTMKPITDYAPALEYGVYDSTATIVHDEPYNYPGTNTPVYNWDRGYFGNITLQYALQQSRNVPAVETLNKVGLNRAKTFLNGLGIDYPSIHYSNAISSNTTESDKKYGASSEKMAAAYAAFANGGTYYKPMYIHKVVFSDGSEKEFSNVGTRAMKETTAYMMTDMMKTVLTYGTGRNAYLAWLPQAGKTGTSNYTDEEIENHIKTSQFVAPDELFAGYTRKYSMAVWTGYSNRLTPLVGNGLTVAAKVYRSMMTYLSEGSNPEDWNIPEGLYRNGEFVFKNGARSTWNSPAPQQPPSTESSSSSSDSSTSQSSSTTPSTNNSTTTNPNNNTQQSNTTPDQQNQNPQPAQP

[7] = biological target: T1, Penicillin-binding protein 1A; assay: Displacement of Biocillin FL from Streptococcus pneumoniae 2527 PBP1A
[8] = biological target: T1, Penicillin-binding protein 1A; assay: Displacement of Biocillin FL from Streptococcus pneumoniae 3665 PBP1A
[9] = biological target: T1, Penicillin-binding protein 1A; assay: Displacement of Biocillin FL from Streptococcus pneumoniae 1076 PBP1A
[10] = Displacement of Biocillin FL from Streptococcus pneumoniae 24 PBP1B
[11] = Displacement of Biocillin FL from Streptococcus pneumoniae 2527 PBP1B
[12] = Displacement of Biocillin FL from Streptococcus pneumoniae 3009 PBP1B
[13] = Displacement of Biocillin FL from Streptococcus pneumoniae 24 PBP2X
[14] = biological target: T2, Penicillin-binding protein 2x (Streptococcus pneumoniae serotype 4 (strain ATCC BAA-334 / TIGR4), UniProt P14677); assay: Displacement of Biocillin FL from Streptococcus pneumoniae 3676 PBP2X
T2 sequence (P14677 whole entry): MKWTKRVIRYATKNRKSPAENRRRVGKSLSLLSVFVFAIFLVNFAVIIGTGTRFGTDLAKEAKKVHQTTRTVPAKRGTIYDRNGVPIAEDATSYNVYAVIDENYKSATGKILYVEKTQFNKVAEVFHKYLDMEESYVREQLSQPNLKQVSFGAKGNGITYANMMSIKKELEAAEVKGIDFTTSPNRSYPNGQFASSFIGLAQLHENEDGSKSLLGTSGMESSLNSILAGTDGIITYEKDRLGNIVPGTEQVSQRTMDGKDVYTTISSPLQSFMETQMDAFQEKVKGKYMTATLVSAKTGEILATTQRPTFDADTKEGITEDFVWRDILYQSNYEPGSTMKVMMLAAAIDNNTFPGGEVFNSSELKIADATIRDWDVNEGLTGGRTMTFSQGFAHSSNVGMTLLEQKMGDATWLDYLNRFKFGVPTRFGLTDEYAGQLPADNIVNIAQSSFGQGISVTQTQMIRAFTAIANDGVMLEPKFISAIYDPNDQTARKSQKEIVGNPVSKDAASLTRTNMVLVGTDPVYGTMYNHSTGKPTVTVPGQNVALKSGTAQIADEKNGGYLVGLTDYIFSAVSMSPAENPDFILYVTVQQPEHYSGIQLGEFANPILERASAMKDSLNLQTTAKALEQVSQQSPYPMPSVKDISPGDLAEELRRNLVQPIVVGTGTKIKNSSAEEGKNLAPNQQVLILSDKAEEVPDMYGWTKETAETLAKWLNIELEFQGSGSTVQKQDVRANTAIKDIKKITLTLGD

[15] = Displacement of Biocillin FL from Streptococcus pneumoniae 2527 PBP2A
[16] = Displacement of Biocillin FL from Streptococcus pneumoniae 3009 PBP2A
[17] = Displacement of Biocillin FL from Streptococcus pneumoniae 1076 PBP2A
[18] = biological target: T3, Penicillin-binding protein 2B (Streptococcus pneumoniae serotype 4 (strain ATCC BAA-334 / TIGR4), UniProt P0A3M5); assay: Displacement of Biocillin FL from Streptococcus pneumoniae 3243 PBP2B
T3 sequence (P0A3M5 whole entry): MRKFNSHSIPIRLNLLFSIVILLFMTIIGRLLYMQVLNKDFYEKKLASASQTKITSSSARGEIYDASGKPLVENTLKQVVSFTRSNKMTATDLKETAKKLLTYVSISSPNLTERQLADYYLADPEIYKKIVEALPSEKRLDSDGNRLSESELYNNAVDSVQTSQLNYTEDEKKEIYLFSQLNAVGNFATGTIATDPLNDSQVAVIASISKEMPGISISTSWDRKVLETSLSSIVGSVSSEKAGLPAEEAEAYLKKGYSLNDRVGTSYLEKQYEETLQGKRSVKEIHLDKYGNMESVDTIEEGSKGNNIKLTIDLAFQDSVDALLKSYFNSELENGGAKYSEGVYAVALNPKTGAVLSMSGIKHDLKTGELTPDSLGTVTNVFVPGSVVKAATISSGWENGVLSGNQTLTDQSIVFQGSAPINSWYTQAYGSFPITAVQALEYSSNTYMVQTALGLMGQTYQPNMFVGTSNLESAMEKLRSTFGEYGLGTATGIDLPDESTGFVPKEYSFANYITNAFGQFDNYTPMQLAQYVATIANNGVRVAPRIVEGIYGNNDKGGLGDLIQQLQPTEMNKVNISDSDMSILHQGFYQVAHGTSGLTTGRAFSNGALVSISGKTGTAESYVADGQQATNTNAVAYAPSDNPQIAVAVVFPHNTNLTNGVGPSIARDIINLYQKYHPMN

[19] = biological target: T3, Penicillin-binding protein 2B; assay: Displacement of Biocillin FL from Streptococcus pneumoniae 3665 PBP2B
[20] = Displacement of Biocillin FL from Streptococcus pneumoniae 3413 PBP3
[21] = Displacement of Biocillin FL from Streptococcus pneumoniae 3243 PBP3

| SMILES | MIC (Streptococcus pneumoniae [1]) | MIC (Streptococcus pneumoniae [2]) | MIC (Streptococcus pneumoniae [3]) | MIC (Streptococcus pneumoniae [4]) | MIC (Streptococcus pneumoniae [5]) | IC50 [6] | IC50 [7] | IC50 [8] | IC50 [9] | IC50 [10] | IC50 [11] | IC50 [12] | IC50 [13] | IC50 [14] | IC50 [15] | IC50 [16] | IC50 [17] | IC50 [18] | IC50 [19] | IC50 [20] | also measured |
| --- | --- | --- | --- | --- | --- | --- | --- | --- | --- | --- | --- | --- | --- | --- | --- | --- | --- | --- | --- | --- | --- |
| C[C@@H](O)[C@H]1C(=O)N2C(C(=O)O)=C(SCCNC=N)C[C@H]12 [IMIPENEM ANHYDROUS] | 0.125 µg/mL (≈ 0.418 µM) | 0.25 µg/mL (≈ 0.835 µM) | 0.016 µg/mL (≈ 0.0534 µM) | 0.008 µg/mL (≈ 0.0267 µM) | 0.008 µg/mL (≈ 0.0267 µM) | 1470 nM | 140 nM | 965 nM | 301 nM | 0.71 µg/mL (≈ 2.37 µM) | 0.023 µg/mL (≈ 0.0768 µM) | 0.009 µg/mL (≈ 0.0301 µM) | 2.048 µg/mL (≈ 6.84 µM) | 130 nM | 0.059 µg/mL (≈ 0.197 µM) | 0.054 µg/mL (≈ 0.18 µM) | 0.054 µg/mL (≈ 0.18 µM) | 220 nM | 2170 nM | 0.195 µg/mL (≈ 0.651 µM) | IC50 [21]: 0.095 µg/mL (≈ 0.317 µM) |
| CO/N=C(\C(=O)N[C@@H]1C(=O)N2C(C(=O)O)=C(COC(N)=O)CS[C@H]12)c1ccco1 [CEFUROXIME] | 4 µg/mL (≈ 9.43 µM) | 16 µg/mL (≈ 37.7 µM) | 0.125 µg/mL (≈ 0.295 µM) | 0.03 µg/mL (≈ 0.0707 µM) | 0.03 µg/mL (≈ 0.0707 µM) | 9.43 nM | 14.1 nM | 4.71 nM | 9.43 nM | 0.923 µg/mL (≈ 2.17 µM) | 0.028 µg/mL (≈ 0.066 µM) | 0.024 µg/mL (≈ 0.0566 µM) | 0.198 µg/mL (≈ 0.467 µM) | 47.1 nM | 0.01 µg/mL (≈ 0.0236 µM) | 0.008 µg/mL (≈ 0.0189 µM) | 0.004 µg/mL (≈ 0.00943 µM) | 54.2 nM | 34700 nM | 0.004 µg/mL (≈ 0.00943 µM) | IC50 [21]: 0.023 µg/mL (≈ 0.0542 µM) |
| C[C@@H](O)[C@H]1C(=O)N2C(C(=O)O)=C([C@H]3CCCO3)S[C@H]12 [FAROPENEM] | 1 µg/mL (≈ 3.5 µM) | 0.03 µg/mL (≈ 0.105 µM) | 0.125 µg/mL (≈ 0.438 µM) | 0.03 µg/mL (≈ 0.105 µM) | 0.03 µg/mL (≈ 0.105 µM) | 31.5 nM | 80.6 nM | 105 nM | 52.6 nM | 0.06 µg/mL (≈ 0.21 µM) | 0.002 µg/mL (≈ 0.00701 µM) | 0.002 µg/mL (≈ 0.00701 µM) | 0.758 µg/mL (≈ 2.66 µM) | 59.6 nM | 0.025 µg/mL (≈ 0.0876 µM) | 0.016 µg/mL (≈ 0.0561 µM) | 0.035 µg/mL (≈ 0.123 µM) | 45.6 nM | 165 nM | 0.003 µg/mL (≈ 0.0105 µM) | IC50 [21]: 0.004 µg/mL (≈ 0.014 µM) |
| CC1(C)S[C@@H]2[C@H](NC(=O)Cc3ccccc3)C(=O)N2[C@H]1C(=O)O [PENICILLIN G] | 4 µg/mL (≈ 12 µM) | 4 µg/mL (≈ 12 µM) | 0.25 µg/mL (≈ 0.748 µM) | 0.03 µg/mL (≈ 0.0897 µM) | 0.03 µg/mL (≈ 0.0897 µM) | 23.9 nM | 5.98 nM | 92.7 nM | 47.8 nM | 0.248 µg/mL (≈ 0.742 µM) | 0.009 µg/mL (≈ 0.0269 µM) | 0.001 µg/mL (≈ 0.00299 µM) | 0.323 µg/mL (≈ 0.966 µM) | 83.7 nM | 0.023 µg/mL (≈ 0.0688 µM) | 0.011 µg/mL (≈ 0.0329 µM) | 0.02 µg/mL (≈ 0.0598 µM) | 182 nM | 467 nM | 0.01 µg/mL (≈ 0.0299 µM) | IC50 [21]: 0.007 µg/mL (≈ 0.0209 µM) |
| CC1(C)S[C@@H]2[C@H](NC(=O)[C@H](N)c3ccc(O)cc3)C(=O)N2[C@H]1C(=O)O [AMOXICILLIN] | 2 µg/mL (≈ 5.47 µM) | 8 µg/mL (≈ 21.9 µM) | 0.03 µg/mL (≈ 0.0821 µM) | 0.016 µg/mL (≈ 0.0438 µM) | 0.016 µg/mL (≈ 0.0438 µM) | 10.9 nM | 134 nM | 183 nM | 120 nM | 1.103 µg/mL (≈ 3.02 µM) | 0.029 µg/mL (≈ 0.0794 µM) | 0.059 µg/mL (≈ 0.161 µM) | 0.117 µg/mL (≈ 0.32 µM) | 118 nM | 0.051 µg/mL (≈ 0.14 µM) | 0.08 µg/mL (≈ 0.219 µM) | 0.08 µg/mL (≈ 0.219 µM) | 79.4 nM | 602 nM | 0.029 µg/mL (≈ 0.0794 µM) | IC50 [21]: 0.006 µg/mL (≈ 0.0164 µM) |

Reference: ChEMBL document CHEMBL1649182, “Binding of faropenem and other beta-lactam agents to penicillin-binding proteins of pneumococci with various beta-lactam susceptibilities” (Antimicrob Agents Chemother, 2009)
